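48-hour exposure; five concentrations; linearly interpolated endpoints. GI50 = concentration required for 50% inhibition of growth. TGI denotes the concentration required for complete inhibition of growth.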
What was measured:
Experiment in all cases: NCI tumour cell line growth inhibition, 48 h
[1] = system: LOX IMVI melanoma
[2] = system: NCI/ADR-RES ovarian
[3] = system: U251 CNS
[4] = system: K-562 leukemia
[5] = system: HS 578T breast
[6] = system: HCC-2998 colon
[7] = system: UO-31 renal
[8] = system: PC-3 prostate
[9] = system: NCI-H460 lung
[10] = system: HCT-15 colon

SMILES	GI50 [1] [µM]	TGI [1] [µM]	GI50 [2] [µM]	TGI [2] [µM]	GI50 [3] [µM]	TGI [3] [µM]	GI50 [4] [µM]	TGI [4] [µM]	GI50 [5] [µM]	TGI [5] [µM]	GI50 [6] [µM]	TGI [6] [µM]	GI50 [7] [µM]	TGI [7] [µM]	GI50 [8] [µM]	TGI [8] [µM]	GI50 [9] [µM]	TGI [9] [µM]	GI50 [10] [µM]	TGI [10] [µM]
NC(=S)N/N=C/c1ccc(OC(=O)COc2cc(Cl)c(Cl)cc2Cl)cn1	3.09	26.6	3.23	> 100	3.52	> 100	5.56	> 100	51	> 100	5.84	> 100	3.18	> 100	4.59	> 100	6.1	> 100	6.84	> 100
CCN1CCN(CCNc2nccc(-c3c(-c4ccc(F)c(O)c4)nc4occn34)n2)S1(=O)=O	3.76	> 100	3.01	> 100	13.3	> 100	3.67	> 100	6.75	> 100	6.19	> 100	2.66	> 100	2.12	> 100	4.92	> 100	3.93	> 100
NCCCCC(NC(=O)C(N)CCCN=C(N)N)C(=O)NC(CCCCN)C(=O)NC(CCCN=C(N)N)C(=O)NC(CCCN=C(N)N)C(=O)NC(CCC(N)=O)C(=O)NC(CCCN=C(N)N)C(=O)NC(CCCN=C(N)N)C(=O)NC(CCCN=C(N)N)C(=O)NCC(=O)NCC(=O)O (centres undefined)	> 50	> 50	> 50	> 50	> 50	> 50	> 50	> 50	> 50	> 50	> 50	> 50	> 50	> 50	> 50	> 50	> 50	> 50	> 50	> 50
COc1cc(-n2ccnc2-c2ccc3ccccc3c2)cc(OC)c1OC	1.08	> 47.6		0.472	0.0907	21.5	< 0.0191	> 100	0.135	10.5	< 0.0318	0.199	0.28	35	0.03	> 85.8	0.0373	14.7	0.0509	> 48.6
COc1cnc2c(c1)C(=O)c1c-2n(CCCN2CCCC2)c(=O)c2cc([N+](=O)[O-])ccc12	< 0.01	0.112	0.026	1.31	0.0113	1.03	0.0226	1.9	1.91	23.2	0.157	2.53	< 0.01	0.206	0.0662	13.9	< 0.01	0.116	0.0616	4.05
CCSC[C@@H]1C[C@](O)(c2ccc(Cl)cc2)[C@@H](c2ccc(Cl)cc2)O1	18.5	40.7	20.5	43.6	18.3	36.2	18.8	44.2	18	39.6	20.3	39.3	16.5	30.4	20	39.1	17.3	34.1	18.8	38.7
COc1cc(-c2nn(-c3cccc(NC(=O)Nc4ccc(Cl)c(C(F)(F)F)c4)c3)cc2-c2ccncc2)ccc1Cl	1.17	4.61	1.04	7.99	0.985	4.18	1.21	> 32.5	1.32	18.3	1.55	7.3	0.865	4.1	0.69	2.45	1.11	4.79	1.23	7.05
Cc1c(Cn2c(C)nc3c(C(=O)O)cc(N4CCOCC4)cc32)cccc1C(F)(F)F	60.7	> 100	4.99	40.6	49.5	> 100	> 77.2	> 100	50.5	> 100	72.4	> 100	3.46	> 67.6	6.38	> 100	40	> 100	4.58	> 100
Cc1ccc(OCC2CO2)c(Br)c1 (centres undefined)		30.4		33		32.6		71.6		> 100		34.8		39.1		> 100		66		29.2
